# Tests used:
# Format in all cases: binding
# PA-IL (LecA) [1] = target: T1, PA-IL (LecA) (Pseudomonas aeruginosa, UniProt Q05097); test: 1H STD NMR, reference ligand; details: 4 mM ligand, 40 μM lectin, D2O, 20 mM Tris-d11, 150 mM NaCl, 5 mM CaCl2, pH 7.5, 283 K
# T1 construct: freeze-dried; tetramer, one sugar site with one calcium ion per monomer
# PA-IL (LecA) [2] = target: T1, PA-IL (LecA); test: isothermal titration calorimetry, single-site model; details: 0.1 M Tris/HCl, 500 μM CaCl2, pH 7.5, 25 °C
# Text: isothermal titration calorimetry, single-site model on PA-IL (LecA)
# PA-IIL (LecB) = target: T2, PA-IIL (LecB) (Pseudomonas aeruginosa, UniProt Q9HYN5); test: as above; details: 0.1 M Tris/HCl, 500 μM CaCl2, pH 7.5, 25 °C
# T2 construct: freeze-dried; tetramer, one sugar site with two calcium ions per monomer
# Text: isothermal titration calorimetry, single-site model on PA-IIL (LecB)
# T1 sequence (Q05097 2-122): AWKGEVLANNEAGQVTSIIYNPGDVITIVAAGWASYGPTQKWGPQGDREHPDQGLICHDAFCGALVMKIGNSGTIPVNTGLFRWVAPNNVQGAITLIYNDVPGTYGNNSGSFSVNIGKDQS
# T2 sequence (Q9HYN5 entry or part of it): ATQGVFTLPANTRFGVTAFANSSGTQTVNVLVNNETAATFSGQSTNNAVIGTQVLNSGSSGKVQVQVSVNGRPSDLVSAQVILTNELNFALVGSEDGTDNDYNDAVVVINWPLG
smiles,measurement,setting,value
CO[C@H]1O[C@H](CO)[C@H](O)[C@H](O)[C@H]1O [Meα-D-Gal],STD signal,PA-IL (LecA) [1],The STD signals (highlighted by red ellipsoids) confirm the binding of Meα-D-Gal
"C#CCO[C@@H]1O[C@H](CO)[C@@H](O[C@@H]2O[C@H](CO)[C@H](O)[C@H](O)[C@H]2O)[C@H](O[C@@H]2O[C@@H](C)[C@@H](O)[C@@H](O)[C@@H]2O)[C@H]1O [compound 6, Compound 6]",Ka [10^4 M^-1],PA-IL (LecA) [2]; n = 0.51,59 ± 28.4 10^4 M^-1
same,Ka [10^4 M^-1],PA-IIL (LecB); n = 1.12,344 ± 124 10^4 M^-1
"C[C@@H]1O[C@@H](O[C@@H]2[C@@H](O)[C@H](OCc3cn(CCn4cc(COCC(COCc5cn(CCn6cc(CO[C@@H]7O[C@H](CO)[C@@H](O[C@@H]8O[C@H](CO)[C@H](O)[C@H](O)[C@H]8O)[C@H](O[C@@H]8O[C@@H](C)[C@@H](O)[C@@H](O)[C@@H]8O)[C@H]7O)nn6)nn5)(COCc5cn(CCn6cc(CO[C@@H]7O[C@H](CO)[C@@H](O[C@@H]8O[C@H](CO)[C@H](O)[C@H](O)[C@H]8O)[C@H](O[C@@H]8O[C@@H](C)[C@@H](O)[C@@H](O)[C@@H]8O)[C@H]7O)nn6)nn5)COCc5cn(CCn6cc(CO[C@@H]7O[C@H](CO)[C@@H](O[C@@H]8O[C@H](CO)[C@H](O)[C@H](O)[C@H]8O)[C@H](O[C@@H]8O[C@@H](C)[C@@H](O)[C@@H](O)[C@@H]8O)[C@H]7O)nn6)nn5)nn4)nn3)O[C@H](CO)[C@H]2O[C@@H]2O[C@H](CO)[C@H](O)[C@H](O)[C@H]2O)[C@@H](O)[C@H](O)[C@@H]1O [compound 8, Compound 8]",Ka [10^4 M^-1],"PA-IL (LecA) [2]; n = 0.51 pH, buffer, temperature, tetravalent ligand, n = 0.89",496 ± 104 10^4 M^-1
same,Ka [10^4 M^-1],"PA-IIL (LecB); n = 1.12 pH, buffer, temperature, tetravalent ligand, n = 1.1",257 ± 66.9 10^4 M^-1
